The subject of one series is MDA-MB231. The experiment in a line: SRB antiproliferative assay, MDA-MB231. In kind it is cell-based, human. The note with it: Homo sapiens, MDA-MB-231, 48 h, SRB, 48 h incubation, MDA-MB231 triple-negative breast cancer cells; read-out: GI50 MDA-MB231. As for the experimental part:
(§1) The human breast cancer cell lines MDA-MB468, MDA-MB231 and MCF-7 were purchased from ATCC and maintained in RPMI 1640 medium supplemented with 10% fetal bovine serum (Hyclone, Logan UT) and 2 mM L-glutamine. MCF10A and 184B5 immortalised breast cells were purchased from ATCC and maintained in mammary epithelial basal medium supplemented with an MEGM mammary epithelial singlequot kit (Cambrex). Cells were grown at 37 °C with 5% CO2, 95% air under the humidified conditions. Cell line authentication was carried out by Genetica DNA Laboratories (Burlington, NC) using a short tandem repeat profiling method (March 2015; July 2015; September 2016).
(§2) Cell cytotoxic effects were determined by a SRB-based protocol[2]^,[25].
(§3) The newly synthesised 4-piperazinylquinoline compounds (5–30) were evaluated for their antiproliferative effects using three breast cancer cell lines, for which the compounds were diluted to achieve seven different concentrations ranging from […]. Followed by 48 h incubation with the compound, cells were treated with sulforhodamine B (SRB) to measure their growth/viability (% of the untreated control) by spectrophotometer. The total cellular macromolecules levels known to accurately reflect by UV reading of SRB staining. […] The reference compounds CQ and cisplatin were included for the comparison.

The subject of series [1] is breast cancer and non-cancer breast cell lines. Briefly: SRB antiproliferative comparison of breast cancer and non-cancer breast cell lines. The settings on record: for antigrowth effect against cancer versus non-cancer cells (in words): three breast cancer lines vs 184B5 and MCF10A; for higher activity than the reference compounds cisplatin and CQ: breast cancer cell lines, GI50 comparison. It counts as cell-based, human. As for the experimental part: as §1, §2, §3
(§4) We further assessed their antiproliferative effects on two non-cancer immortalised cell lines (184B5 and MCF10A). […] The antiproliferative effects of compound 23 on cancer cells are thus 7-fold (MDA-MB468 vs MCF10A) to 11-fold (MDA-MB231 vs 184B5) higher than matching non-cancer breast cells, which may indicate that compound 23 could potentially be safer than other compounds. Therefore, we examined it further to gain insights into its molecular mechanism of action.

In a further series the test system is 184B5. Briefly: SRB antiproliferative assay, 184B5 non-cancer breast cells. It counts as cell-based, human. The settings on record: Homo sapiens; SRB, 48 h incubation, 184B5 non-cancer immortalised breast cells; read-out: GI50 184B5. As for the experimental part: as §1, §2, §3, §4
For a further series, the system named is MCF10A. The experiment in a line: SRB antiproliferative assay, MCF10A non-cancer breast cells. In kind it is cell-based, human. The settings on record: Homo sapiens, MCF-10A; SRB, 48 h incubation, MCF10A non-cancer immortalised breast cells; read-out: GI50 MCF10A. The procedure:
as §1, §2, §3, §4

In another series the test system is MCF7. The experiment in a line: SRB antiproliferative assay, MCF7. In kind it is cell-based, human. The settings on record: Homo sapiens; SRB, 48 h incubation, MCF7 breast cancer cells; read-out: GI50 MCF7. As for the experimental part:
as §1, §2, §3

For another series, the system named is MDA-MB468. The experiment in a line: SRB antiproliferative assay, MDA-MB468. It counts as cell-based, human. The note with it: Homo sapiens, MDA-MB-468, 48 h, SRB, 48 h incubation, MDA-MB468 breast cancer cells; read-out: GI50 MDA-MB468. As for the experimental part:
as §1, §2, §3

Molecules are shown by their SMILES.

In the case of `O=C(NC1CCCCC1)N1CCN(c2ccnc3cc(C(F)(F)F)ccc23)CC1` [Compound 16, 4-(7-Trifluoromethyl-quinolin-4-yl)-piperazine-1-carboxylic acid cyclohexylamide], the melting point was in the range of 132 to 133 °C. Moreover, the GI50 with MDA-MB231 was found to be 20.8 ± 2.3 µM. Besides, the “antigrowth effect against cancer versus non-cancer cells (in words)” value in series [1] was “comparable against cancer and non-cancer cells”. Also, the GI50 in the series with 184B5 worked out at 20.8 ± 1.4 µM. Also, in the series with MCF10A, the GI50 stood at 20.9 ± 1 µM. Further, in the series with MCF7, the GI50 is 4.9 ± 0.3 µM. In addition, the GI50 with MDA-MB468 stood at 12.7 ± 0.5 µM.
On to `O=C(Nc1ccc(C(F)(F)F)cc1)N1CCN(c2ccnc3cc(C(F)(F)F)ccc23)CC1` [Compound 13, 4-(7-Trifluoromethyl-quinolin-4-yl)-piperazine-1-carboxylic acid (4-trifluoromethyl-phenyl)-amide], for which the melting point was in the range of 154 to 155 °C. Besides, the GI50 in the series on MDA-MB231 is 15.3 ± 1.3 µM. Besides, the “antigrowth effect against cancer versus non-cancer cells (in words)” value in series [1] is recorded as “higher activity against non-cancer cells than cancer cells”. Moreover, the GI50 in the series on 184B5 was 1.1 ± 0.1 µM. The GI50 with MCF10A came out at 1 ± 0.1 µM. In the series on MCF7, the GI50 was found to be 2 ± 0.1 µM. The GI50 in the series on MDA-MB468 was 2.7 ± 0.1 µM.
`Cc1ccc(C)c(NC(=O)N2CCN(c3ccnc4cc(Cl)ccc34)CC2)c1` [Compound 6, 4-(7-Chloro-quinolin-4-yl)-piperazine-1-carboxylic acid (2,5-dimethyl-phenyl)-amide] showed a melting point of 118 to 119 °C. Also, the GI50 in the series on MDA-MB231 came to 50.6 ± 3.2 µM. For the same compound, the “antigrowth effect against cancer versus non-cancer cells (in words)” value in series [1] is on record as “higher activity against non-cancer cells than cancer cells”. In addition, the GI50 in the series with 184B5 is 19.8 ± 1 µM. In addition, in the series with MCF10A, the GI50 was 18.8 ± 1.3 µM. Further, the GI50 in the series with MCF7 amounted to 28.9 ± 1.4 µM. In addition, the GI50 with MDA-MB468 was 35.5 ± 1.3 µM.
In the case of `FC(F)(F)c1ccc2c(N3CCN(C(=S)NCCN4CCOCC4)CC3)ccnc2c1` [Compound 30, 4-(7-Trifluoromethyl-quinolin-4-yl)-piperazine-1-carbothioic acid (2-morpholin-4-yl-ethyl)-amide], the melting point was in the range of 134 to 135 °C. Further, the GI50 in the series with MDA-MB231 came out at 11.8 ± 0.9 µM. In addition, the “antigrowth effect against cancer versus non-cancer cells (in words)” value in series [1] is listed as “much stronger activities against cancer than non-cancer cells”. Besides, the GI50 in the series on 184B5 was found to be 17.4 ± 1 µM. In addition, the GI50 in the series with MCF10A stood at 18.9 ± 1.3 µM. Also, the GI50 with MCF7 amounted to 6.2 ± 0.7 µM. The GI50 in the series on MDA-MB468 was 14.2 ± 0.6 µM.
Regarding `FC(F)(F)c1ccc2c(N3CCN(C(=S)Nc4cccc5ccccc45)CC3)ccnc2c1` [Compound 29, 4-(7-Trifluoromethyl-quinolin-4-yl)-piperazine-1-carbothioic acid naphthalen-1-ylamide], the melting point lay in the range of 137 to 138 °C. For the same compound, the GI50 in the series on MDA-MB231 came out at 9.8 ± 1 µM. In addition, in series [1], the “higher activity than the reference compounds cisplatin and CQ” value is 4-8 fold; the “antigrowth effect against cancer versus non-cancer cells (in words)” value is “much stronger activities against cancer than non-cancer cells”. Moreover, the GI50 in the series with 184B5 stood at 50.6 ± 3.8 µM. Also, the GI50 in the series with MCF10A amounted to 69.4 ± 3.7 µM. In the series with MCF7, the GI50 came to 6.4 ± 0.7 µM. In the series with MDA-MB468, the GI50 was 9.4 ± 0.8 µM.
Compound `S=C(Nc1ccc(Cl)cc1)N1CCN(c2ccnc3cc(Cl)ccc23)CC1` [Compound 20, 4-(7-Chloro-quinolin-4-yl)-piperazine-1-carbothioic acid (4-chloro-phenyl)-amide] yielded a melting point of 145 to 146 °C. Moreover, in the series with MDA-MB231, the GI50 is 22.6 ± 1.4 µM. The “antigrowth effect against cancer versus non-cancer cells (in words)” value in series [1] is given as “higher activity against non-cancer cells than cancer cells”. The GI50 in the series with 184B5 came to 14.4 ± 0.6 µM. Also, the GI50 in the series with MCF10A was determined as 8.8 ± 0.7 µM. Besides, in the series with MCF7, the GI50 came to 20.4 ± 0.9 µM. Also, the GI50 in the series with MDA-MB468 was 33.1 ± 1.5 µM.
Take `FC(F)(F)c1ccc(NC(=S)N2CCN(c3ccnc4cc(Cl)ccc34)CC2)cc1` [Compound 19, 4-(7-Chloro-quinolin-4-yl)-piperazine-1-carbothioic acid (4-trifluoromethyl-phenyl)-amide]: the melting point fell in the range of 112 to 113 °C. The GI50 with MDA-MB231 came out at 14.9 ± 1.1 µM. For the same compound, the “antigrowth effect against cancer versus non-cancer cells (in words)” value in series [1] was “higher activity against non-cancer cells than cancer cells”. In the series on 184B5, the GI50 worked out at 3.7 ± 0.1 µM. In addition, in the series with MCF10A, the GI50 came out at 3.1 ± 0.1 µM. For the same compound, the GI50 in the series on MCF7 came to 4.9 ± 0.4 µM. In addition, in the series on MDA-MB468, the GI50 came to 7.8 ± 0.8 µM.
The compound `Cc1ccc(C)c(NC(=O)N2CCN(c3ccnc4cc(C(F)(F)F)ccc34)CC2)c1` [Compound 12, 4-(7-Trifluoromethyl-quinolin-4-yl)-piperazine-1-carboxylic acid (2,5-dimethyl-phenyl)-amide] yielded a melting point of 108 to 109 °C. Moreover, the GI50 with MDA-MB231 came to 39.6 ± 2.1 µM. Further, the “antigrowth effect against cancer versus non-cancer cells (in words)” value in series [1] was “higher activity against non-cancer cells than cancer cells”. The GI50 in the series with 184B5 is 7.6 ± 0.7 µM. Besides, the GI50 with MCF10A is 8.8 ± 0.9 µM. Besides, in the series with MCF7, the GI50 worked out at 22.5 ± 1.4 µM. Moreover, in the series with MDA-MB468, the GI50 was found to be 21.7 ± 1 µM.
Turning to `Cc1cccc(C)c1NC(=S)N1CCN(c2ccnc3cc(Cl)ccc23)CC1` [Compound 18, 4-(7-Chloro-quinolin-4-yl)-piperazine-1-carbothioic acid (2,6-dimethyl-phenyl)-amide], the melting point was 138 to 139 °C. In the series with MDA-MB231, the GI50 amounted to 9.6 ± 0.5 µM. Besides, the “antigrowth effect against cancer versus non-cancer cells (in words)” value in series [1] is recorded as “much stronger activities against cancer than non-cancer cells”. For the same compound, in the series on 184B5, the GI50 was 16.7 ± 1 µM. The GI50 with MCF10A turned out to be 52.3 ± 2.9 µM. For the same compound, the GI50 in the series on MCF7 turned out to be 7.3 ± 0.5 µM. The GI50 with MDA-MB468 turned out to be 7.8 ± 0.8 µM.
In the case of `Cc1cccc(C)c1NC(=S)N1CCN(c2ccnc3cc(C(F)(F)F)ccc23)CC1` [Compound 25, 4-(7-Trifluoromethyl-quinolin-4-yl)-piperazine-1-carbothioic acid (2,6-dimethyl-phenyl)-amide], the melting point is 105 to 106 °C. Also, in the series on MDA-MB231, the GI50 was determined as 22.2 ± 1.7 µM. The “antigrowth effect against cancer versus non-cancer cells (in words)” value in series [1] was “comparable against cancer and non-cancer cells”. Also, the GI50 in the series with 184B5 is 21.4 ± 1.3 µM. Besides, the GI50 with MCF10A came to 14.1 ± 1.5 µM. The GI50 in the series on MCF7 stood at 5.2 ± 0.5 µM. The GI50 in the series on MDA-MB468 is 13.3 ± 0.3 µM.
The compound `O=C(Nc1ccccc1)N1CCN(c2ccnc3cc(C(F)(F)F)ccc23)CC1` [Compound 11, 4-(7-Trifluoromethyl-quinolin-4-yl)-piperazine-1-carboxylic acid phenylamide] gave a melting point of 146 to 147 °C. Further, in the series with MDA-MB231, the GI50 came to 20.6 ± 1.4 µM. The “antigrowth effect against cancer versus non-cancer cells (in words)” value in series [1] is “comparable against cancer and non-cancer cells”. For the same compound, the GI50 with 184B5 is 12.2 ± 1.3 µM. In the series with MCF10A, the GI50 stood at 21.1 ± 1.6 µM. Also, the GI50 in the series on MCF7 came out at 11 ± 0.6 µM. Moreover, the GI50 in the series on MDA-MB468 is 57.6 ± 3.2 µM.
In turn, `O=C(Nc1cccc2ccccc12)N1CCN(c2ccnc3cc(Cl)ccc23)CC1` [Compound 9, 4-(7-Chloro-quinolin-4-yl)-piperazine-1-carboxylic acid naphthalen-1-ylamide] had a melting point of 138 to 139 °C. In addition, the GI50 with MDA-MB231 came to 9.1 ± 1 µM. Besides, in series [1], the “higher activity than the reference compounds cisplatin and CQ” value was 4-8 fold; the “antigrowth effect against cancer versus non-cancer cells (in words)” value was “much stronger activities against cancer than non-cancer cells”. For the same compound, the GI50 in the series with 184B5 was found to be 21.8 ± 1 µM. Moreover, in the series on MCF10A, the GI50 worked out at 21.8 ± 1 µM. Also, in the series with MCF7, the GI50 is 9.4 ± 0.8 µM. The GI50 in the series on MDA-MB468 was 7.1 µM.
`O=C(Nc1c(Cl)cc(Cl)cc1Cl)N1CCN(c2ccnc3cc(C(F)(F)F)ccc23)CC1` [Compound 14, 4-(7-Trifluoromethyl-quinolin-4-yl)-piperazine-1-carboxylic acid (2,4,6-trichloro-phenyl)-amide] displayed a melting point of 142 to 143 °C. For the same compound, the GI50 in the series on MDA-MB231 was 21.1 ± 1.3 µM. Further, the “antigrowth effect against cancer versus non-cancer cells (in words)” value in series [1] is “comparable against cancer and non-cancer cells”. For the same compound, the GI50 with 184B5 is 33.2 ± 2.1 µM. Further, the GI50 in the series with MCF10A came to 17.4 ± 0.5 µM. Further, in the series on MCF7, the GI50 turned out to be 12.6 ± 1.2 µM. Also, the GI50 in the series with MDA-MB468 worked out at 22.5 ± 0.2 µM.

The values are drawn from article PMC6366420, “Design and synthesis of 4-piperazinyl quinoline derived urea/thioureas for anti-breast cancer activity by a hybrid pharmacophore approach” (Journal of Enzyme Inhibition and Medicinal Chemistry, 2019).
